We go through three compounds from patent US6054457A, “Benzamide derivatives and their use as vasopressin antagonists” (Fujisawa Pharmaceutical Co., Ltd., priority 1995, dated 2000).

Structures can show the parent of a compound that is named as a salt.

For assay [1], the target named is Vasopressin 1 (V1) receptor (Homo sapiens, UniProt P37288). Description: Vasopressin 1 (V1) Receptor Binding. Conditions: competition with 1.5 nM 3H-vasopressin, platelet membrane preparation from blood of normal subjects, 15 minutes at 30° C.
The target of a further assay is human V2 receptor (Homo sapiens, UniProt P30518). The assay is described as follows: Vasopressin 2 (V2) Receptor Binding. The conditions noted are these: competition with 0.5 nM 3H-vasopressin, membranes of CHO cells expressing human V2 receptor, 2 hours at 22° C.
human V2 receptor, sequence (P30518 whole entry): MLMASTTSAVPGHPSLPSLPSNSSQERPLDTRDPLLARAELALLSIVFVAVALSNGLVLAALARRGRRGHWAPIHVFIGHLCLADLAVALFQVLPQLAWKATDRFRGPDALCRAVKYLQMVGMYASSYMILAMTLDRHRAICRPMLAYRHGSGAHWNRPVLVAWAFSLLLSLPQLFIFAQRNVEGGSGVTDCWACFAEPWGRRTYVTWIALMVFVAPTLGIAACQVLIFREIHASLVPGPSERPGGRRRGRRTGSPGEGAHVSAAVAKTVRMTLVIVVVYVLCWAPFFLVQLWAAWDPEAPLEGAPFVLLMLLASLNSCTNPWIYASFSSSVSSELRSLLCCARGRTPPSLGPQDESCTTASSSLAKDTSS

Vasopressin 1 (V1) receptor, sequence (P37288 whole entry): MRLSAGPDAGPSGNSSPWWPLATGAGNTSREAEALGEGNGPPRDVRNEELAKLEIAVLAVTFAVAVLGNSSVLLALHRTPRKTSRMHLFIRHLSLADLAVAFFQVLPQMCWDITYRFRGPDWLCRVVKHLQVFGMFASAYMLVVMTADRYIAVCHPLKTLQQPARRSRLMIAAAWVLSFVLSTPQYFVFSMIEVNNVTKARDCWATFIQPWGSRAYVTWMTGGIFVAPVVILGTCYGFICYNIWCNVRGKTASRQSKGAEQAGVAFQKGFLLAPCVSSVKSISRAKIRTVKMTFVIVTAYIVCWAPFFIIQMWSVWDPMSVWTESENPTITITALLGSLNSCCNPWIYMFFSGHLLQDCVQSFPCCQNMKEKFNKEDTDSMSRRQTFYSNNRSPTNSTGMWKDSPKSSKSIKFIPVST

Consider `Cc1ccc(N(C)C(=O)c2ccc(NC(=O)c3ccccc3N)cc2)c(OCCCCCC(=O)O)c1` [5-2), 4-(2-Aminobenzoyl)amino-N-methyl-N-[2-(5-carboxypent-1-yloxy)-4-methylphenyl]benzamide], for which the half-maximal inhibitory concentration (IC50) in assay [1] is 51 nM; at human V2 receptor it was 1300 nM.
In the same order, the values of `CCOC(=O)CCCCCOc1cc(C)ccc1N(C)C(=O)c1ccc(NC(=O)c2ccccc2OCCCN)cc1` [17-20), 4-[2-(3-Aminoprop-1-yl)oxybenzoyl]amino-N-[2-(5-ethoxycarbonylpent-1-yl)oxy-4-methyl]phenyl-N-methylbenzamide hydrochoiride] are 31 nM and 1300 nM.
In the same order, the values of `CN1CCN(C(=O)CCCCCOc2ccccc2N(C)C(=O)c2ccc(NC(=O)c3ccccc3OCCCN)cc2)CC1` [Example 16, 4-[2-[(3-aminoprop-1-yl)oxy]benzoyl]amino-N-methyl-N-[2-[5-(4-methylpiperazin-1-yl)carbonylpent-1-yloxy]phenyl]benzamide dihydrochloride] are 14 nM and 1400 nM.
